According to the NIST ThermoML archive (doi:10.1016/j.jct.2014.02.024):
± gives the expanded uncertainty stated by the source.

What was measured:
[1] = 101.3 kPa, Liquid; for viscosity: Capillary tube (Ostwald / Ubbelohde) method; for mass density: Pycnometric method
[2] = mn = molality of the nth substance listed, in mol/kg; conditions: 101.3 kPa, Liquid, m2 = 0; for viscosity: Capillary tube (Ostwald / Ubbelohde) method; for mass density: Pycnometric method

O [water]
viscosity ([1]; 275.15 K): 1.674 ± 0.036 mPa·s
mass density ([1]; 275.15 K): 999.94 ± 0.92 kg/m3
viscosity ([1]; 277.15 K): 1.567 ± 0.034 mPa·s
mass density ([1]; 277.15 K): 999.97 ± 0.92 kg/m3
viscosity ([1]; 279.15 K): 1.472 ± 0.032 mPa·s
mass density ([1]; 279.15 K): 999.94 ± 0.92 kg/m3

O [water] + NC(=O)c1cccnc1
viscosity ([2]; 275.15 K): 1.674 ± 0.036 mPa·s
mass density ([2]; 275.15 K): 999.94 ± 0.92 kg/m3
viscosity ([2]; 277.15 K): 1.567 ± 0.034 mPa·s
mass density ([2]; 277.15 K): 999.97 ± 0.92 kg/m3
viscosity ([2]; 279.15 K): 1.472 ± 0.032 mPa·s
mass density ([2]; 279.15 K): 999.94 ± 0.92 kg/m3

O [water] + O=C(O)c1cccnc1
viscosity ([2]; 275.15 K): 1.674 ± 0.036 mPa·s
mass density ([2]; 275.15 K): 999.94 ± 0.92 kg/m3
viscosity ([2]; 277.15 K): 1.567 ± 0.034 mPa·s
mass density ([2]; 277.15 K): 999.97 ± 0.92 kg/m3
viscosity ([2]; 279.15 K): 1.472 ± 0.032 mPa·s
mass density ([2]; 279.15 K): 999.94 ± 0.92 kg/m3
